The text below walks through data of ChEMBL document CHEMBL1909294, “Translating clinical findings into knowledge in drug safety evaluation--drug induced liver injury prediction system (DILIps)” (PLoS Comput Biol, 2011).

For series [1], the system named is Hepatotoxicity.
In series [2] the test system is Hepatotoxicity. The source holds these as a separate data set.
For series [3], the system named is Hepatotoxicity. This is another data set of the same source.
Series [4] deals with Hepatotoxicity. This is another data set of the same source.
In series [5] the test system is Hepatotoxicity. The source holds these as a separate data set.
For series [6], the system named is Hepatotoxicity. This is another data set of the same source.
In series [7] the test system is Hepatotoxicity. This is another data set of the same source.
Series [8] deals with Hepatotoxicity. This is another data set of the same source.
Series [9] concerns Hepatotoxicity. The source holds these as a separate data set.
For series [10], the system named is Hepatotoxicity. This is another data set of the same source.
Series [11] relates to Hepatotoxicity. The source holds these as a separate data set.
In series [12] the test system is Hepatotoxicity. This is another data set of the same source.
The test system of series [13] is Hepatotoxicity. This is another data set of the same source.
For series [14], the system named is Hepatotoxicity. This is another data set of the same source.
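For HepSE Combined Scores in this document: combined hepatic side effect score as listed in the training data of the Drug Induced Liver Injury Prediction System (DILIps).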
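For HepSE bilirubinemia in this document: bilirubinemia hepatic side effect score drawn from the DILIps training data, a prediction system for drug-induced liver injury; call rule not given here.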
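For HepSE cholecystitis in this document: Cholecystitis-related hepatic side effect score drawn from the DILIps (drug-induced liver injury prediction) training data set; call rule not given here.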
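For HepSE cholelithiasis in this document: hepatic side effect score for cholelithiasis, drawn from the DILIps training data for predicting drug-induced liver injury; call rule not given here.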
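For HepSE cirrhosis in this document: cirrhosis hepatic side effect score taken from the DILIps (drug-induced liver injury prediction) training set; call rule not given here.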
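For HepSE elevated liver function tests in this document: hepatic side effect score for raised liver function tests, as recorded in the DILIps training set used for predicting drug-induced liver injury.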
For HepSE hepatic failure in this document: call rule not given here.
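For HepSE hepatic necrosis in this document: score of hepatic side effects for hepatic necrosis, drawn from the training data of DILIps, a prediction system for drug-induced liver injury; call rule not given here.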
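For HepSE hepatitis in this document: Hepatitis-related hepatic side effect score taken from the training data of DILIps, a prediction system for drug-induced liver injury; call rule not given here.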
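For HepSE hepatomegaly in this document: hepatic side effect score for hepatomegaly, taken from the training set of the DILIps drug-induced liver injury prediction system; call rule not given here.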
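For HepSE jaundice in this document: Jaundice-related hepatic side-effect score drawn from the training data of the DILIps (drug-induced liver injury prediction system); call rule not given here.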
For HepSE liver disease in this document: call rule not given here.
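For HepSE liver fatty in this document: hepatic side effect score for fatty liver, taken from the DILIps training set for predicting drug-induced liver injury; call rule not given here.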
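For HepSE liver function tests abnormal in this document: hepatic side effect score taken from the DILIps (drug-induced liver injury prediction system) training data, here covering abnormal liver function test findings.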

Consider `N[C@@H](C(=O)N[C@@H]1C(=O)N2C(C(=O)O)=C(Cl)CC[C@H]12)c1ccccc1` [LORACARBEF ANHYDROUS], for which the HepSE_hepatic failure in series [1] worked out at 0. Further, the HepSE_liver fatty in series [2] was 0. This molecule showed a HepSE_cholelithiasis in [3] of 0. In series [4], this molecule showed a HepSE_cirrhosis of 0. In [5], this molecule yielded a HepSE_hepatomegaly of 0. For the same molecule, the “HepSE_liver function tests abnormal” value in series [6] is reported as 0. In addition, the HepSE_bilirubinemia in series [7] was determined as 0. Also, in series [8], the HepSE_cholecystitis came to 0. Further, in series [9], the “HepSE_elevated liver function tests” value is reported as 0. In addition, the “HepSE_Combined Scores” value in series [10] is on record as 1. The molecule further showed a HepSE_hepatitis in series [11] of 0. This molecule also had a HepSE_hepatic necrosis in series [12] of 0. In addition, the HepSE_jaundice in series [13] is 1. Besides, the HepSE_liver disease in series [14] is listed as 0.

Molecule `Cc1ncc2n1-c1ccc(Cl)cc1C(c1ccccc1F)=NC2` [MIDAZOLAM] came in with a HepSE_hepatic failure in series [1] of 0. In series [2], the HepSE_liver fatty was 0. The molecule further came in with a HepSE_cholelithiasis in series [3] of 0. The same molecule came in with a HepSE_cirrhosis in series [4] of 0. The HepSE_hepatomegaly in series [5] is 0. Further, the “HepSE_liver function tests abnormal” value in series [6] was determined as 0. Besides, the HepSE_bilirubinemia in series [7] was 0. Besides, the HepSE_cholecystitis in series [8] is on record as 0. In addition, the “HepSE_elevated liver function tests” value in [9] was determined as 0. For the same molecule, the “HepSE_Combined Scores” value in [10] is 0. The HepSE_hepatitis in series [11] came to 0. The HepSE_hepatic necrosis in [12] is 0. The same molecule showed a HepSE_jaundice in series [13] of 0. This molecule gave a HepSE_liver disease in series [14] of 0.

Molecule `CCOC(=O)c1ccc(C#Cc2ccc3c(c2)C(C)(C)CCS3)nc1` [TAZAROTENE] came in with a HepSE_hepatic failure in series [1] of 0. The molecule further gave a HepSE_liver fatty in [2] of 0. For the same molecule, the HepSE_cholelithiasis in series [3] came to 0. The molecule further came in with a HepSE_cirrhosis in series [4] of 0. Besides, the HepSE_hepatomegaly in series [5] came to 0. For the same molecule, the “HepSE_liver function tests abnormal” value in series [6] is 0. Besides, in [7], the HepSE_bilirubinemia was determined as 0. Besides, the HepSE_cholecystitis in [8] was found to be 0. In addition, in [9], the “HepSE_elevated liver function tests” value was 0. In addition, the “HepSE_Combined Scores” value in [10] is 0. Besides, the HepSE_hepatitis in [11] is on record as 0. The molecule also yielded a HepSE_hepatic necrosis in [12] of 0. In series [13], the HepSE_jaundice worked out at 0. The molecule further displayed a HepSE_liver disease in [14] of 0.

Turning to AURANOFIN, the HepSE_hepatic failure in series [1] is listed as 0. For the same molecule, the HepSE_liver fatty in [2] is listed as 0. The same molecule yielded a HepSE_cholelithiasis in [3] of 0. In [4], the HepSE_cirrhosis is 0. Further, in [5], the HepSE_hepatomegaly came to 0. In addition, the “HepSE_liver function tests abnormal” value in [6] is listed as 0. The same molecule returned a HepSE_bilirubinemia in [7] of 0. The HepSE_cholecystitis in series [8] worked out at 0. In addition, in series [9], the “HepSE_elevated liver function tests” value was found to be 0. Besides, in [10], the “HepSE_Combined Scores” value is given as 1. In series [11], the HepSE_hepatitis turned out to be 0. The HepSE_hepatic necrosis in [12] was 0. Moreover, the HepSE_jaundice in [13] is given as 1. Further, the HepSE_liver disease in series [14] worked out at 0.

The molecule `CCCCc1nc(Cl)c(CO)n1Cc1ccc(-c2ccccc2-c2nn[nH]n2)cc1` [LOSARTAN] yielded a HepSE_hepatic failure in series [1] of 0. Moreover, the HepSE_liver fatty in series [2] was found to be 0. The molecule further returned a HepSE_cholelithiasis in series [3] of 0. The same molecule displayed a HepSE_cirrhosis in series [4] of 0. Further, the HepSE_hepatomegaly in series [5] is listed as 0. The “HepSE_liver function tests abnormal” value in series [6] was found to be 0. The HepSE_bilirubinemia in series [7] is 0. The molecule further gave a HepSE_cholecystitis in series [8] of 0. The “HepSE_elevated liver function tests” value in series [9] worked out at 0. Besides, in series [10], the “HepSE_Combined Scores” value is given as 2. In addition, in series [11], the HepSE_hepatitis stood at 1. Besides, the HepSE_hepatic necrosis in series [12] was 0. The HepSE_jaundice in [13] is 1. For the same molecule, the HepSE_liver disease in series [14] worked out at 0.

In the case of `CC(=O)N(O)CCCCCNC(=O)CCC(=O)N(O)CCCCCNC(=O)CCC(=O)N(O)CCCCCN` [DEFEROXAMINE], the HepSE_hepatic failure in [1] came to 0. The molecule also came in with a HepSE_liver fatty in series [2] of 0. In [3], the HepSE_cholelithiasis worked out at 0. This molecule came in with a HepSE_cirrhosis in series [4] of 0. Also, in series [5], the HepSE_hepatomegaly is 0. Also, the “HepSE_liver function tests abnormal” value in series [6] is listed as 0. In addition, the HepSE_bilirubinemia in series [7] worked out at 0. In series [8], this molecule showed a HepSE_cholecystitis of 0. In addition, the “HepSE_elevated liver function tests” value in series [9] is 0. Also, in [10], the “HepSE_Combined Scores” value worked out at 0. In addition, the HepSE_hepatitis in [11] is on record as 0. For the same molecule, the HepSE_hepatic necrosis in series [12] was found to be 0. Besides, the HepSE_jaundice in series [13] stood at 0. In [14], this molecule returned a HepSE_liver disease of 0.

As to `CC(C)Cn1cnc2c(N)nc3ccccc3c21` [IMIQUIMOD], in series [1], the HepSE_hepatic failure worked out at 0. The molecule also displayed a HepSE_liver fatty in series [2] of 0. Besides, the HepSE_cholelithiasis in series [3] came to 0. This molecule also showed a HepSE_cirrhosis in series [4] of 0. In addition, in series [5], the HepSE_hepatomegaly is given as 0. Further, the “HepSE_liver function tests abnormal” value in series [6] was 0. The molecule also registered a HepSE_bilirubinemia in [7] of 0. The HepSE_cholecystitis in series [8] stood at 0. Moreover, the “HepSE_elevated liver function tests” value in series [9] is given as 0. In addition, in [10], the “HepSE_Combined Scores” value turned out to be 0. In addition, the HepSE_hepatitis in [11] is 0. This molecule showed a HepSE_hepatic necrosis in series [12] of 0. Moreover, the HepSE_jaundice in [13] is recorded as 0. Moreover, the HepSE_liver disease in series [14] is listed as 0.

Consider `C=C1/C(=C\C=C2/CCC[C@]3(C)[C@@H]([C@H](C)/C=C/[C@@H](O)C4CC4)CC[C@@H]23)C[C@@H](O)C[C@@H]1O` [CALCIPOTRIENE], for which, in series [1], the HepSE_hepatic failure turned out to be 0. This molecule returned a HepSE_liver fatty in series [2] of 0. The HepSE_cholelithiasis in series [3] amounted to 0. Besides, the HepSE_cirrhosis in series [4] is reported as 0. In [5], this molecule had a HepSE_hepatomegaly of 0. Besides, the “HepSE_liver function tests abnormal” value in series [6] amounted to 0. In series [7], this molecule came in with a HepSE_bilirubinemia of 0. This molecule also returned a HepSE_cholecystitis in [8] of 0. Moreover, the “HepSE_elevated liver function tests” value in series [9] was 0. Also, the “HepSE_Combined Scores” value in series [10] is 0. The HepSE_hepatitis in [11] stood at 0. This molecule yielded a HepSE_hepatic necrosis in series [12] of 0. This molecule also showed a HepSE_jaundice in series [13] of 0. The molecule further gave a HepSE_liver disease in series [14] of 0.

Take `Cl[C@H]1[C@H](Cl)[C@@H](Cl)[C@@H](Cl)[C@H](Cl)[C@H]1Cl` [LINDANE]: the HepSE_hepatic failure in series [1] (Liver) is recorded as 0. This molecule showed a HepSE_liver fatty in [2] (Liver) of 0. For the same molecule, the HepSE_cholelithiasis in series [3] (Liver) stood at 0. The molecule further had a HepSE_cirrhosis in [4] (Liver) of 0. The same molecule displayed a HepSE_hepatomegaly in [5] (Liver) of 0. For the same molecule, the “HepSE_liver function tests abnormal” value in series [6] (Liver) stood at 0. Besides, the HepSE_bilirubinemia in series [7] (Liver) stood at 0. Also, in [8] (Liver), the HepSE_cholecystitis amounted to 0. In addition, the “HepSE_elevated liver function tests” value in [9] (Liver) is given as 0. The “HepSE_Combined Scores” value in [10] (Liver) worked out at 0. The HepSE_hepatitis in series [11] (Liver) is 0. Also, the HepSE_hepatic necrosis in series [12] (Liver) is 0. The molecule further yielded a HepSE_jaundice in series [13] (Liver) of 0. Further, the HepSE_liver disease in series [14] (Liver) was 0.

In turn, `COc1cccc2c1C(=O)c1c(O)c3c(c(O)c1C2=O)C[C@@](O)(C(C)=O)C[C@@H]3O[C@H]1C[C@H](N)[C@H](O)[C@H](C)O1` [DAUNORUBICIN] had a HepSE_hepatic failure in series [1] of 0. The molecule also returned a HepSE_liver fatty in series [2] of 0. In addition, the HepSE_cholelithiasis in [3] was 0. The HepSE_cirrhosis in series [4] is 0. In [5], this molecule yielded a HepSE_hepatomegaly of 1. Also, the “HepSE_liver function tests abnormal” value in [6] is 0. The molecule further gave a HepSE_bilirubinemia in [7] of 0. In series [8], this molecule came in with a HepSE_cholecystitis of 0. For the same molecule, the “HepSE_elevated liver function tests” value in series [9] came to 0. In [10], the “HepSE_Combined Scores” value stood at 1. The HepSE_hepatitis in series [11] came out at 0. In addition, the HepSE_hepatic necrosis in series [12] was 0. The molecule further showed a HepSE_jaundice in series [13] of 0. Also, the HepSE_liver disease in series [14] was found to be 0.
